From ChEMBL document CHEMBL1145714, “Activity of Parthenolide at 5HT2A receptors” (J Nat Prod, 1997)

Key:
[1] = target: T1, 5-hydroxytryptamine receptor 2A (Rattus norvegicus, UniProt P14842); experiment: Displacement of [3H]ketanserin from 5HT2A receptor in rat brain membrane; format: cell membranes
[2] = Displacement of [3H]ketanserin from 5HT2A receptor in rabbit cerebral cortex membrane; format: cell membranes, Oryctolagus cuniculus
[3] = target: T1, 5-hydroxytryptamine receptor 2A; experiment: Displacement of [3H]ketanserin from rat 5HT2A receptor expressed in mouse NIH3T3 cells; format: cell-based

T1 sequence (P14842 whole entry): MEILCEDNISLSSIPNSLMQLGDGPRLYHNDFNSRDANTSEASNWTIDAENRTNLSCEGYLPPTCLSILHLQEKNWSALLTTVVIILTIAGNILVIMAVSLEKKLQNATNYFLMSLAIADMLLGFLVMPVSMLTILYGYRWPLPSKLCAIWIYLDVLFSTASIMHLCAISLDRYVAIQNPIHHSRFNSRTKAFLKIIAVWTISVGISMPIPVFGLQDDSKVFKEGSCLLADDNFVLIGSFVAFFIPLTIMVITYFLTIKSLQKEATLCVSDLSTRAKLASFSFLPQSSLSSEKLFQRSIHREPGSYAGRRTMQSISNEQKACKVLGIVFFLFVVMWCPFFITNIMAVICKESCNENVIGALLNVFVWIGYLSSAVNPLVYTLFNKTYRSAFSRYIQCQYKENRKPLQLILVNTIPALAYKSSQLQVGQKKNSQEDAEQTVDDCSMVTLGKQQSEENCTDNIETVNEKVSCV

SMILES	Ki [1]	Ki [2]	Ki [3]
C=C1C(=O)O[C@@H]2C3O[C@]3(C)CC/C=C(\C)CC[C@@H]12 (some centres undefined)	250 µM	230 µM	100 µM
CN1C[C@@H](NS(=O)(=O)N(C)C)C[C@@H]2c3cccc4c3c(cn4C)C[C@H]21 [MESULERGINE]		0.0083 µM	
